Consider five compounds from US12371428B2 (Exelixis, Inc., priority 2019, dated 2025).

The target of assay [1] is Human Axl (residues H473-A894 with Q764R) (Homo sapiens (Human), UniProt P30530, Q764R). The assay can be described thus: Human AXL kinase assay, 33P-phosphoryl transfer radiometric (Example A-1, KinaseProfiler). The class given is biochemical.
Experimental: The reaction was initiated by the addition of the Mg/ATP mix. […] Incorporated ^33P was measured using the Wallac Microbeta scintillation counter (Perkin Elmer).
Assay [2] concerns the target Human Mer (residues R557-E882 with H628Q and R794A) (Homo sapiens, UniProt Q12866). The assay can be described thus: Human Mer kinase assay, 33P-phosphoryl transfer radiometric (Example C-1, KinaseProfiler). The class given is biochemical. The following applies: protocol of Example C-1 (compounds 21-27, 41-47, 99, 104). The method, then:
Kinase activity and compound inhibition were investigated using the ^33P-Phosphoryl transfer radiometric kinase assay, performed using the KinaseProfiler™ service of Eurofins Pharma Discovery Services UK Limited. Dose-response experiments were performed using nine compound concentrations in a 96-well microtiter plate. For each assay, all compounds were prepared to a 50× final assay concentration (50 μM) in 100% DMSO, then diluted in a half-log series, with the final top concentration at 1 μM. This working stock of the compound was added to the assay well as the first component in the reaction, followed by the remaining components as detailed in the following assay protocols below. The positive control wells (100% kinase activity) contain all components of the reaction including 2% DMSO (control for solvent effects), except the compound of interest. Blank wells contain all components of the reaction, with the reference inhibitor, staurosporine. This reference compound was used to abolish kinase activity and generated the 0% kinase activity base-line. IC50 values were calculated by nonlinear regression analysis using the sigmoidal dose-response (variable slope) curve fit on XLFit version 5.3 (ID Business Solutions).
Example C-1: Human Mer (residues R557-E882 with H628Q and R794A, 0.7 nM) was incubated with 8 mM MOPS pH 7.0, 0.2 mM EDTA, 30 mM NaCl, 250 μM […] (SEQ ID NO:2), 10 mM magnesium acetate, and 10 μM [γ-^33P-ATP]. The reaction was initiated by the addition of the Mg/ATP mix. After incubation for 40 minutes at room temperature, the reaction was stopped by the addition of phosphoric acid to a concentration of 0.5%. A reaction aliquot of 10 μL was then spotted onto a P30 filtermat and washed four times for 4 minutes in 0.425% phosphoric acid and once in methanol prior to drying and scintillation counting. Incorporated ^33P was measured using the Wallac Microbeta scintillation counter (Perkin Elmer).

Assay [3] has as its target AXL (phospho-AXL, Gas6-stimulated A-172 glioblastoma cells) (Homo sapiens (Human), UniProt P30530). The assay can be described thus: AXL autophosphorylation ELISA in A-172 cells (Example E). The class given is cell-based. As to conditions: cellular activity; AXL autophosphorylation ELISA in A-172 cells; read-out: Axl IC50. The method, boiled down: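 Phospho-AXL was measured by ELISA in lysates of Gas6-stimulated A-172 cells, starved 24 h in serum-free medium and exposed 1 h to an 8-point compound dilution at 0.3% DMSO.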
Background: An ELISA detects its analyte on a solid surface through an enzyme-linked reagent.

The target of assay [4] is Human AXL (residues 464-885) (Homo sapiens (Human), UniProt P30530). The assay can be described thus: Human AXL kinase assay, HTRF KinEase (Example A-2). The class given is biochemical. The method, then:
Kinase activity and compound inhibition were also investigated using the HTRF® KinEase assay (Cisbio Cat #62TKOPEB) per manufacturer's instructions. In short, compounds were delivered in 300 nL volumes at 10 different concentrations in DMSO (3% final) to empty 384-well assay plates (Corning cat #3824). A mixture of enzyme, […] biotynlated peptide substrate, and buffer in 10 μL volume was added. The assay was started upon the addition of ATP (at Km). The 10 μL reaction was incubated at room temperature. The reaction was stopped upon the addition of detection buffer containing streptavidin-XL665 ([…]) and TK antibody-Eu3+(5 L).
Kinase activity normalized to DMSO (100% activity) and reference compound at […] and (0% activity) was calculated using the fluorescence ratio […]. IC50 values were calculated by nonlinear regression analysis using a 4-parameter logistic curve fit in ActivityBase XE (IDBS).
The mixture was added to the pre-plated compounds. […] The reaction was incubated at room temperature for 50 min and stopped upon the addition of SA-XL665 and TK-antibody both diluted in EDTA-containing kinase detection buffer (Cisbio). The kinase activity was calculated as stated above and the IC50 values were reported.

The mark [5] stands for this setting: protocol of Example A-2 (other compounds).

The IC50 is the concentration that gives 50% inhibition.

Sequence of AXL (phospho-AXL, Gas6-stimulated A-172 glioblastoma cells) (P30530 26-894): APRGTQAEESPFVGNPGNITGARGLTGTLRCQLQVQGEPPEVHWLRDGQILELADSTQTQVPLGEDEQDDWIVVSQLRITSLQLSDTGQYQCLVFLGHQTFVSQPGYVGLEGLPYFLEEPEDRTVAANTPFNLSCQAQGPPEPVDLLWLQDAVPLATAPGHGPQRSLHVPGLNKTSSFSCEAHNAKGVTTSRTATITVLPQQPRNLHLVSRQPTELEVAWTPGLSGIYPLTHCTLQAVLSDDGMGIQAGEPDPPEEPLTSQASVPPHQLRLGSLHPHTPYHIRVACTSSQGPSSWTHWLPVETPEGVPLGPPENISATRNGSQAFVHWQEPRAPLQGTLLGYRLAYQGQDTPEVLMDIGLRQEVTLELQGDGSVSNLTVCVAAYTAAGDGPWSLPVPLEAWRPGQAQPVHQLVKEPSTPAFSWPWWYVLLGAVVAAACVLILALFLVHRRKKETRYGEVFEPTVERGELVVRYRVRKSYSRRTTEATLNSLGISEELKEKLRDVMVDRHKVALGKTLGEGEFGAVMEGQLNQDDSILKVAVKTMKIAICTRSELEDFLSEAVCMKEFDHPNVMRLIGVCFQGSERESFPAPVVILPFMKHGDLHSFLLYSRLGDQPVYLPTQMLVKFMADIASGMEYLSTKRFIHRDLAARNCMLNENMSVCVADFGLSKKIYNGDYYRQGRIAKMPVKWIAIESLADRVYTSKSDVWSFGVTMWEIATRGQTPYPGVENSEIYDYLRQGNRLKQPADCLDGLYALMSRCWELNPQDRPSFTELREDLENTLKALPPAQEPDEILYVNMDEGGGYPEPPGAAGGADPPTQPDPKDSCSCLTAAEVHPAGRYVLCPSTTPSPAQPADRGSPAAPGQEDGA
Sequence of Human AXL (residues 464-885) (P30530 473-894): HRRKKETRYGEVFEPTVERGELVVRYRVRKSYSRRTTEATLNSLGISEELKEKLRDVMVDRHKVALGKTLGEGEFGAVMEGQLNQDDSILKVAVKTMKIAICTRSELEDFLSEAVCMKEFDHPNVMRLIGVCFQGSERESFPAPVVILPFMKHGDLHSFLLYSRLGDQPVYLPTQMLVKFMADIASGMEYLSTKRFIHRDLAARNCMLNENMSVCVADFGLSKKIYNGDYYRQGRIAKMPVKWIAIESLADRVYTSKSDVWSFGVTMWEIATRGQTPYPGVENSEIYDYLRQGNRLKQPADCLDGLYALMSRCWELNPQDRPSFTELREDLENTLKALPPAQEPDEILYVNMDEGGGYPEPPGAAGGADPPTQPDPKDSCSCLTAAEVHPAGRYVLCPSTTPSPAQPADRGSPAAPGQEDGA
Sequence of Human Axl (residues H473-A894 with Q764R) (P30530 473-894 Q764R): as the sequence (P30530 473-894) above, with Q292R counted along it
Sequence of Human Mer (residues R557-E882 with H628Q and R794A) (Q12866 21-999 limits assumed, stated change not applied): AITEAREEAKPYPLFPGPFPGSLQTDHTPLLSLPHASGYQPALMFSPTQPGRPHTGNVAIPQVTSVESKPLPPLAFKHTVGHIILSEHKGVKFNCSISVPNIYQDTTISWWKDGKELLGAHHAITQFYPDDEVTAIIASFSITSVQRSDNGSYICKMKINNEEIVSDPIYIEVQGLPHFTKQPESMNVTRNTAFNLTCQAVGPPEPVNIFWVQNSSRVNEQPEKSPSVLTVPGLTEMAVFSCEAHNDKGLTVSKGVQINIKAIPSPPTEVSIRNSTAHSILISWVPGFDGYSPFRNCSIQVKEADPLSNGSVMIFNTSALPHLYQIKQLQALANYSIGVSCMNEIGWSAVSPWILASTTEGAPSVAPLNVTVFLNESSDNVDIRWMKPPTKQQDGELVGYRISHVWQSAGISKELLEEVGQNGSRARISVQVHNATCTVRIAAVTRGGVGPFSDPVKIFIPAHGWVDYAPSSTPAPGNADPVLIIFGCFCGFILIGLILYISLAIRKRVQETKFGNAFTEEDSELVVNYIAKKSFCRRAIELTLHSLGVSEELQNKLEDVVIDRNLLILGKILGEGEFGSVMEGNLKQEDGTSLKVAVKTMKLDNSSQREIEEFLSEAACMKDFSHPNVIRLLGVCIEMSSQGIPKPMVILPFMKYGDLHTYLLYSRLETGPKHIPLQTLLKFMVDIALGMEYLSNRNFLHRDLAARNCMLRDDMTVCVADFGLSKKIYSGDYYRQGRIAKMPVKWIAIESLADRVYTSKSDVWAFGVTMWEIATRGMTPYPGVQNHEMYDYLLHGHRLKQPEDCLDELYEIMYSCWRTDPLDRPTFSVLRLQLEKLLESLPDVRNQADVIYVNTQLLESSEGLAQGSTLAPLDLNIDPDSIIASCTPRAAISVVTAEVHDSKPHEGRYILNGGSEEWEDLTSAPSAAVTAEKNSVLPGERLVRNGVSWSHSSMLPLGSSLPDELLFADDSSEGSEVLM

In the case of `COc1cc2nccc(Oc3ccc(NC(=O)c4c[nH]c(=S)n(-c5ccc(F)cc5)c4=O)cc3F)c2nc1OC` [Compound 104, N-[4-[(6,7-Dimethoxy-1,5-naphthyridin-4-yl)oxy]-3-fluorophenyl]-3-(4-fluorophenyl)-4-oxo-2-sulfanylidene-1H-pyrimidine-5-carboxamide], the half-inhibitory concentration (IC50) is > 300 nM in assay [1], > 300 nM in assay [2] and < 100 nM in assay [3].
On to `COCCOc1ccc2nccc(Oc3ccc(NC(=O)c4c(C)nc(C)c(-c5ccc(F)cc5)c4O)cc3F)c2n1` [Compound 349, N-[3-fluoro-4-[[6-(2-methoxyethoxy)-1,5-naphthyridin-4-yl]oxy]phenyl]-5-(4-fluorophenyl)-4-hydroxy-2,6-dimethylpyridine-3-carboxamide], for which the half-maximal inhibitory concentration (IC50) in assay [4] (setting [5]) and in assay [3] was < 100 nM each time.
Consider `COc1cc2ncnc(Oc3ccc(NC(=O)c4c5n(cc(-c6ccc(F)cc6)c4=O)CCC5)cc3F)c2cc1OC` [Compound 406, N-[4-(6,7-dimethoxyquinazolin-4-yl)oxy-3-fluorophenyl]-6-(4-fluorophenyl)-7-oxo-2,3-dihydro-1H-indolizine-8-carboxamide], for which the IC50 in assay [4] (setting [5]) and in assay [3] was < 100 nM in each case.
As to `C=C(C)c1cnc2c(Oc3ccc(NC(=O)c4c(C)cc(C)n(-c5ccc(F)cc5)c4=O)cc3F)ccnc2c1` [Compound 457, 1-(4-fluorophenyl)-N-[3-fluoro-4-[(7-prop-1-en-2-yl-1,5-naphthyridin-4-yl)oxy]phenyl]-4,6-dimethyl-2-oxopyridine-3-carboxamide], the concentration for half-maximal inhibition (IC50) in assay [4] (protocol of Example A-2) and in assay [3] was < 100 nM throughout.
On to `CNc1nccc2c(Oc3ccc(NC(=O)c4cnc(C)n(-c5ccc(F)cc5)c4=O)cc3)ccnc12` [Compound 543, 1-(4-fluorophenyl)-2-methyl-N-[4-[[8-(methylamino)-1,7-naphthyridin-4-yl)oxy]phenyl]-6-oxopyrimidine-5-carboxamide], for which the IC50 in assay [4] (protocol of Example A-2) and in assay [3] was < 100 nM in each case.
